Measurements published in patent US20200399318A1, “PEPTIDE INHIBITORS OF PHOSPHOGLYCERATE MUTASE AND METHODS OF USE” (priority 2016, published 2020).
Where a SMILES comes first, the peptide text is derived from it. Bridges are numbered along the chain shown (N, C = ends). [ ]: non-standard residue; d: D form.

Tests used:
[1] = target: O. volvulus iPGM (Onchocerca volvulus, UniProt I6LDA6); experiment: biochemical
[2] = target: E. coli iPGM (Escherichia coli, UniProt P37689); experiment: biochemical
[3] = target: B. malayi iPGM (Brugia malayi, UniProt Q4VWF8); experiment: biochemical
[4] = tested on: D. immitis iPGM; type: biochemical, Dirofilaria immitis
[5] = read-out: O. volvulus iPGM Max Inhibition
[6] = read-out: E. coli iPGM Max Inhibition
[7] = read-out: B. malayi iPGM Max Inhibition

E. coli iPGM, sequence (P37689 whole entry, looked up): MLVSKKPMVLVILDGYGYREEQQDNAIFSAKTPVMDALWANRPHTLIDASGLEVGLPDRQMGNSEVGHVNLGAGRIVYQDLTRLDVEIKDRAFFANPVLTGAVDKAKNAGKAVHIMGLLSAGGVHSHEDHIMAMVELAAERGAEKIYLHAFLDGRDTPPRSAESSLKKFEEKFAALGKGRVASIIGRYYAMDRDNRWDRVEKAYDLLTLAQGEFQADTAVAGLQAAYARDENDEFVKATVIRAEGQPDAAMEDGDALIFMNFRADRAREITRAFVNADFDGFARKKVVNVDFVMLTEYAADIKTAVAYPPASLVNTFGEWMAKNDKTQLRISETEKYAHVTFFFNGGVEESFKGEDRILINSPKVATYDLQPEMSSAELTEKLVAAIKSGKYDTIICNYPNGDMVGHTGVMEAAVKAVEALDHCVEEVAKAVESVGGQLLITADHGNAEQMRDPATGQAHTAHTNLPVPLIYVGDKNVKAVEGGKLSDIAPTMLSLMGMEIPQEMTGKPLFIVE
B. malayi iPGM, sequence (Q4VWF8 whole entry, looked up): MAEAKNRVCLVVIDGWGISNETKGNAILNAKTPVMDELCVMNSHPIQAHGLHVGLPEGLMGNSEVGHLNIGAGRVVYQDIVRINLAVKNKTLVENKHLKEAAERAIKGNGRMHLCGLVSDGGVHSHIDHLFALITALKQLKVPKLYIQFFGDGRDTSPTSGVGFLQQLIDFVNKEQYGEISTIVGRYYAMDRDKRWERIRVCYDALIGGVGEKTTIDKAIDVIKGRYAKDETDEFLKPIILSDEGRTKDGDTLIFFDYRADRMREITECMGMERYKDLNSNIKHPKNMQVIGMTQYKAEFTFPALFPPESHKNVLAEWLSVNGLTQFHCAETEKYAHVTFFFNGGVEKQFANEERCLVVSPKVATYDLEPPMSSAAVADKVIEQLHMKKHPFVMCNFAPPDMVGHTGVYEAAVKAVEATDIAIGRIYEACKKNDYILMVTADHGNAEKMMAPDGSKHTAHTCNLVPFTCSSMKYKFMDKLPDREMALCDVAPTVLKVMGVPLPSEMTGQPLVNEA
O. volvulus iPGM, sequence (I6LDA6 whole entry, looked up): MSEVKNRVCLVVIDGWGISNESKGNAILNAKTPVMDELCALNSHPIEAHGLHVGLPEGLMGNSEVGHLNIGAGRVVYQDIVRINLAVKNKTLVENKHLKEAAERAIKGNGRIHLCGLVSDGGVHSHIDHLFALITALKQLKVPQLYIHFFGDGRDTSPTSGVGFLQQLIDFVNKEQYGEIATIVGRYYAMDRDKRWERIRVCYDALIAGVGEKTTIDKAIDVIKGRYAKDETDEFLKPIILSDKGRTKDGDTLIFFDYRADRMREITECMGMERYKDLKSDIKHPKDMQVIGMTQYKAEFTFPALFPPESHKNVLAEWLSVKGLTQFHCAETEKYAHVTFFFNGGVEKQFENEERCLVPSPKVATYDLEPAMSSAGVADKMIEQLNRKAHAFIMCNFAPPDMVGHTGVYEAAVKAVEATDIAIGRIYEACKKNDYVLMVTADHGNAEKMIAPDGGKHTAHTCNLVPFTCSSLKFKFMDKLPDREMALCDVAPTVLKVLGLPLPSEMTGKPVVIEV

Row | Compound | Emax [1, 5] [%] | Emax [2, 6] [%] | Emax [3, 7] [%] | inhibition at 0.0005 µM [1, 5] [%] | inhibition at 0.0005 µM [2, 6] [%] | inhibition at 0.0005 µM [3, 7] [%] | D. immitis iPGM Max Inhibition [4] | O. volvulus iPGM PIC50, M [1] [M] | pIC50 E. coli iPGM [2] | pIC50 B. malayi iPGM [3] | E. coli iPGM PIC50, M [2] [M] | B. malayi iPGM PIC50, M [3] [M]
1 | NC(=O)[C@H](Cc1ccc(O)cc1)NC(=O)[C@@H]1CSCC(=O)N[C@H](Cc2ccc(O)cc2)C(=O)N[C@@H](CC(=O)O)C(=O)N[C@@H](Cc2ccc(O)cc2)C(=O)N2CCC[C@H]2C(=O)NCC(=O)N[C@@H](CC(=O)O)C(=O)N[C@@H](Cc2ccc(O)cc2)C(=O)N1 [Ce-2f] ({CH2CO}-[dY]DYPGDYCY-NH2; thioether N-8) | -4.3 | 79.6 | 14.8 | – | – | – | – | – | – | – | – | –
2 | CC(C)C[C@H](NC(=O)[C@H](Cc1ccc(O)cc1)NC(=O)[C@@H]1CSCC(=O)N[C@H](Cc2ccc(O)cc2)C(=O)N[C@@H](CC(=O)O)C(=O)N[C@@H](Cc2ccc(O)cc2)C(=O)N2CCC[C@H]2C(=O)NCC(=O)N[C@@H](CC(=O)O)C(=O)N[C@@H](Cc2ccc(O)cc2)C(=O)N1)C(=O)N[C@@H](Cc1ccc(O)cc1)C(=O)NCC(=O)N[C@H](C(=O)N[C@@H](CO)C(=O)NCC(N)=O)[C@@H](C)O [Ce-2S] | 97 ± 1.6 | 105 ± 2.5 | 97.7 ± 0.6 | 69.8 ± 9.3 | 68.1 ± 8.9 | 77.1 ± 7.5 | – | – | – | – | – | –
3 | CC[C@H](C)[C@@H]1NC(=O)[C@H](CCC(=O)O)NC(=O)[C@@H]2CCCN2C(=O)[C@H](C)NC(=O)[C@H](CC(N)=O)NC(=O)[C@@H]2CCCN2C(=O)[C@H](Cc2c[nH]c3ccccc23)NC(=O)[C@H](CO)NC(=O)[C@@H](Cc2ccc(O)cc2)NC(=O)CSC[C@@H](C(=O)N[C@@H](CS)C(=O)NCC(N)=O)NC(=O)[C@H](CCCCN)NC(=O)[C@H](Cc2c[nH]c3ccccc23)NC1=O [Bm-1] ({CH2CO}-[dY]SWPNAPEIWKCCG-NH2; thioether N-12) | 82.1 ± 5.4 | 60.6 ± 9 | 82.8 ± 0.9 | – | – | – | −85.9 ± 0.2 | 5.88 ± 0.53 | 5.31 | 5.89 | – | –
4 | CC(C)[C@@H]1NC(=O)[C@H](C)NC(=O)[C@@H](Cc2ccc(O)cc2)NC(=O)CSC[C@@H](C(=O)N[C@@H](CCCNC(=N)N)C(=O)N[C@H](C(=O)N[C@@H](CS)C(=O)NCC(N)=O)[C@@H](C)O)NC(=O)[C@H](CC(N)=O)NC(=O)[C@@H]2CCCN2C(=O)[C@H](Cc2c[nH]c3ccccc23)NC1=O [Bm-7] ({CH2CO}-[dY]AVWPNCRTCG-NH2; thioether N-7) | 78 ± 19.9 | 69.7 ± 12.3 | 74 ± 10.1 | – | – | – | −83.1 ± 9.7 | 5.37 ± 0.52 | – | 5.28 | 5.12 ± 0.09 | –
5 | CC(C)C[C@H](NC(=O)[C@H](Cc1ccc(O)cc1)NC(=O)[C@@H]1CSCC(=O)N[C@H](Cc2ccc(O)cc2)C(=O)N[C@@H](CC(=O)O)C(=O)N[C@@H](Cc2ccc(O)cc2)C(=O)N2CCC[C@H]2C(=O)NCC(=O)N[C@@H](CC(=O)O)C(=O)N[C@@H](Cc2ccc(O)cc2)C(=O)N1)C(N)=O [Ce-2e] ({CH2CO}-[dY]DYPGDYCYL-NH2; thioether N-8) | 55.5 ± 1.4 | 94.5 ± 9 | 82.7 ± 6.1 | – | – | – | – | – | – | – | – | –
6 | CC[C@H](C)[C@@H]1NC(=O)[C@H](CCCNC(=N)N)NC(=O)[C@H](Cc2ccccc2)NC(=O)[C@@H]2CCCN2C(=O)[C@H](CC(N)=O)NC(=O)[C@H](C)NC(=O)[C@H](CC(C)C)NC(=O)[C@H]([C@@H](C)O)NC(=O)[C@H]([C@@H](C)O)NC(=O)[C@H](Cc2ccc(O)cc2)NC(=O)CSC[C@@H](C(=O)NCC(N)=O)NC(=O)[C@H](Cc2c[nH]cn2)NC(=O)[C@H](CC(C)C)NC1=O [Ce-4] ({CH2CO}-YTTLANPFRILHCG-NH2; thioether N-13) | 23 ± 35.7 | 44.3 ± 1.9 | 2.9 ± 3.3 | – | – | – | −22.1 ± 35.5 | 5.37 ± 0.14 | – | – | – | –
7 | C[C@@H](O)[C@H](NC(=O)[C@H](CO)NC(=O)[C@@H]1CSCC(=O)N[C@H](Cc2ccc(O)cc2)C(=O)N2CCC[C@H]2C(=O)N[C@@H](CCC(=O)O)C(=O)N[C@@H](Cc2c[nH]c3ccccc23)C(=O)N2CCC[C@H]2C(=O)N[C@@H](CC(N)=O)C(=O)N1)C(=O)N[C@@H](CS)C(=O)NCC(N)=O [Bm-6] ({CH2CO}-[dY]PEWPNCSTCG-NH2; thioether N-7) | 86 ± 3.2 | 77.4 ± 4.3 | 86.8 ± 0.6 | – | – | – | −90.2 ± 1.2 | 6.08 ± 0.53 | – | 6.16 | 5.55 ± 0.07 | –
8 | CC(C)C[C@H](NC(=O)[C@H](Cc1ccc(O)cc1)NC(=O)[C@@H]1CSCC(=O)N[C@H](Cc2ccc(O)cc2)C(=O)N[C@@H](CC(=O)O)C(=O)N[C@@H](Cc2ccc(O)cc2)C(=O)N2CCC[C@H]2C(=O)NCC(=O)N[C@@H](CC(=O)O)C(=O)N[C@@H](Cc2c[nH]cn2)C(=O)N1)C(=O)N[C@@H](Cc1ccc(O)cc1)C(=O)NCC(=O)N[C@H](C(=O)N[C@@H](CS)C(=O)NCC(N)=O)[C@@H](C)O [Ce-1] | 95.4 ± 2.6 | 96.5 ± 4.2 | 94 ± 3.4 | – | – | – | – | – | – | – | – | –
9 | CC(C)C[C@@H]1NC(=O)[C@@H](Cc2ccc(O)cc2)NC(=O)CSC[C@@H](C(=O)N[C@@H](CO)C(=O)N[C@H](C(=O)N[C@@H](CS)C(=O)NCC(N)=O)[C@@H](C)O)NC(=O)[C@H](CC(N)=O)NC(=O)[C@@H]2CCCN2C(=O)[C@H](Cc2c[nH]c3ccccc23)NC(=O)[C@H](CC(=O)O)NC1=O [Bm-5] ({CH2CO}-[dY]LDWPNCSTCG-NH2; thioether N-7) | 83.1 ± 7.3 | 74.3 ± 9.5 | 84.7 ± 1.2 | – | – | – | −87.1 ± 3.2 | 5.99 ± 0.69 | – | 6.16 | 5.54 ± 0.20 | –
10 | CC(C)C[C@@H]1NC(=O)[C@@H](Cc2ccc(O)cc2)NC(=O)CSC[C@@H](C(=O)N[C@@H](CC(N)=O)C(=O)N[C@H](C(=O)N[C@@H](CS)C(N)=O)[C@@H](C)O)NC(=O)[C@H](CC(N)=O)NC(=O)[C@@H]2CCCN2C(=O)[C@H](Cc2c[nH]c3ccccc23)NC(=O)[C@H](CCC(=O)O)NC1=O [Bm-4a] ({CH2CO}-[dY]LEWPNCNTC-NH2; thioether N-7) | 87.8 ± 4.1 | 78.3 ± 3.4 | 88 ± 0.4 | – | – | – | −90.5 ± 1.5 | 6.14 ± 0.62 | – | – | 5.58 ± 0.19 | 6.31 ± 0.29
11 | CC(C)C[C@H](NC(=O)[C@H](Cc1ccc(O)cc1)NC(=O)[C@@H]1CSCC(=O)N[C@H](Cc2ccc(O)cc2)C(=O)N[C@@H](CC(=O)O)C(=O)N[C@@H](Cc2ccc(O)cc2)C(=O)N2CCC[C@H]2C(=O)NCC(=O)N[C@@H](CC(=O)O)C(=O)N[C@@H](Cc2ccc(O)cc2)C(=O)N1)C(=O)N[C@@H](Cc1ccc(O)cc1)C(=O)NCC(N)=O [Ce-2c] | 78.4 | 89.1 | 88.2 | – | – | – | – | – | – | – | – | –
12 | CC(=O)N[C@H](Cc1ccc(O)cc1)C(=O)N[C@@H](CC(=O)O)C(=O)N[C@@H](Cc1ccc(O)cc1)C(=O)N1CCC[C@H]1C(=O)NCC(=O)N[C@@H](CC(=O)O)C(=O)N[C@@H](Cc1ccc(O)cc1)C(=O)N[C@@H](CO)C(=O)N[C@@H](Cc1ccc(O)cc1)C(=O)N[C@@H](CC(C)C)C(=O)N[C@@H](Cc1ccc(O)cc1)C(=O)NCC(=O)N[C@H](C(=O)N[C@@H](CS)C(=O)NCC(N)=O)[C@@H](C)O [Ce-L2] (Ac-[dY]DYPGDYSYLYGTCG-NH2) | 40.2 ± 27.6 | 95.1 ± 5.2 | 48.2 ± 18.2 | – | – | – | −44 ± 22.6 | – | 5.88 | – | – | 4.89 ± 0.21
13 | CC(C)C[C@H](NC(=O)[C@H](Cc1ccc(O)cc1)NC(=O)[C@@H]1CSCC(=O)N[C@H](Cc2ccc(O)cc2)C(=O)N[C@@H](CC(=O)O)C(=O)N[C@@H](Cc2ccc(O)cc2)C(=O)N2CCC[C@H]2C(=O)NCC(=O)N[C@@H](CC(=O)O)C(=O)N[C@@H](Cc2ccc(O)cc2)C(=O)N1)C(=O)N[C@@H](Cc1ccc(O)cc1)C(=O)NCC(=O)N[C@H](C(N)=O)[C@@H](C)O [Ce-2b] | 80.1 ± 2.1 | 95.3 ± 9 | 91.8 ± 5.4 | – | – | – | – | – | – | – | – | –
14 | CC[C@H](C)[C@@H]1NC(=O)[C@H](CCCNC(=N)N)NC(=O)[C@H](Cc2ccccc2)NC(=O)[C@@H]2CCCN2C(=O)[C@H](CC(N)=O)NC(=O)[C@H](C)NC(=O)[C@H](CC(C)C)NC(=O)[C@H]([C@@H](C)O)NC(=O)[C@H]([C@@H](C)CC)NC(=O)[C@H](Cc2ccc(O)cc2)NC(=O)CSC[C@@H](C(=O)NCC(N)=O)NC(=O)[C@H](Cc2c[nH]cn2)NC(=O)[C@H](CC(C)C)NC1=O [Ce-3] ({CH2CO}-YITLANPFRILHCG-NH2; thioether N-13) | 22.9 ± 30.8 | 91.4 ± 1.3 | 13.3 ± 2 | – | – | – | −30.1 ± 32.2 | 5.26 ± 0.18 | – | – | 6.27 ± 0.10 | –
